Common to all, as to format: ADME, organism-based
Data set [1] in a line: AUC(0 to t) in BALB/c mouse at 5 mg/kg, iv measured upto 24 hrs by LC-MS/MS analysis. The note with it: in vivo.
Data set [2] in a line: Tmax in BALB/c mouse at 5 mg/kg, iv measured upto 24 hrs by LC-MS/MS analysis. The note with it: in vivo.
Data set [3] is described as follows: Cmax in BALB/c mouse at 5 mg/kg, iv measured upto 24 hrs by LC-MS/MS analysis. The note with it: in vivo.
The nature of data set [4]: MRT(0 to t) in BALB/c mouse at 5 mg/kg, iv measured upto 24 hrs by LC-MS/MS analysis. The note with it: in vivo.
A short description of data set [5]: Apparent volume of distribution in BALB/c mouse at 5 mg/kg, iv measured upto 24 hrs by LC-MS/MS analysis. The note with it: in vivo, read-out: Vz.
Data set [6] is described as follows: Bioavailability in BALB/c mouse at 5 mg/kg, iv measured upto 24 hrs by LC-MS/MS analysis. Conditions: in vivo.
Data set [7] in a line: AUC(0 to t) in BALB/c mouse at 10 mg/kg, po measured upto 24 hrs by LC-MS/MS analysis. Conditions: in vivo.
Data set [8] in a line: Tmax in BALB/c mouse at 10 mg/kg, po measured upto 24 hrs by LC-MS/MS analysis. Conditions: in vivo.
Data set [9] in a line: Cmax in BALB/c mouse at 10 mg/kg, po measured upto 24 hrs by LC-MS/MS analysis. The note with it: in vivo.
The nature of data set [10]: MRT(0 to t) in BALB/c mouse at 10 mg/kg, po measured upto 24 hrs by LC-MS/MS analysis. Conditions: in vivo.
The nature of data set [11]: Apparent volume of distribution in BALB/c mouse at 10 mg/kg, po measured upto 24 hrs by LC-MS/MS analysis. Conditions: in vivo.

As to `Cn1cnc(-c2ccc(F)cc2)c1-c1ccc2ncc(C#CC(C)(C)O)cc2c1`, the AUC(0-t) at 24 h turned out to be 27000 ng·h/mL in [1] and 45700 ng·h/mL in data set [7]. Moreover, the Tmax in [2] was 4.98 min; in data set [8], 1.17 h. Further, the Cmax came to 6340 ng/mL in data set [3] and 5250 ng/mL in [9]. In addition, the MRT last at 24 h came to 4.46 h in [4] and 6.11 h in data set [10]. Moreover, in data set [5], the Vd is 0.846 L/kg. In data set [6], the bioavailability was found to be 84.6%. In data set [11], the Vz amounted to 1.41 L/kg.

Values taken from ChEMBL document CHEMBL5543106, “Fragment growth-based discovery of novel TNIK inhibitors for the treatment of colorectal cancer” (Eur J Med Chem, 2024).
